Square brackets hold non-standard residues; d marks the D form. Peptide text beside a SMILES is read from it. NMeF = CN[C@@H](Cc1ccccc1)C(=O)O; NMeT = CN[C@H](C(=O)O)[C@@H](C)O; NMeK = CN[C@@H](CCCCN)C(=O)O; NMeV = CN[C@H](C(=O)O)C(C)C; NMeS = CN[C@@H](CO)C(=O)O; NMeA = CN[C@@H](C)C(=O)O; Sar = CNCC(=O)O

Experiment [1] relates to Human immunodeficiency virus 1. Nature of the experiment: Binding affinity to HLT-tagged HIV-1 Rev measured after overnight incubation by chemiluminescence analysis relative to IN 118-128. On the set-up: concentration or dose not given beside the values.
In experiment [2] the target is Human immunodeficiency virus type 1 integrase (Human immunodeficiency virus 1) (UniProt Q7ZJM1). Nature of the experiment: Binding affinity to HIV-1 integrase measured after overnight incubation by chemiluminescence analysis relative to IN 118-128. On the set-up: concentration or dose not given beside the values.
Chain of Human immunodeficiency virus type 1 integrase (Human immunodeficiency virus 1) (Q7ZJM1 as listed by the source): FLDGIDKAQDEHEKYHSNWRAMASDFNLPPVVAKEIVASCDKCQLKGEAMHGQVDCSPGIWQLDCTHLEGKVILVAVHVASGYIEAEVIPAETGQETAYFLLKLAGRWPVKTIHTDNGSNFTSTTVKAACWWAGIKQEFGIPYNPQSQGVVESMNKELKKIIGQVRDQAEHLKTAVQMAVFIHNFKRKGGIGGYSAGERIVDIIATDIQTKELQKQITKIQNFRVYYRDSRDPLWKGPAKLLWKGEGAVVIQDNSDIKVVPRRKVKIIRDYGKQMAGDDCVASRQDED

`CC(C)[C@H](NC(=O)[C@@H](NC(=O)[C@@H](NC(=O)[C@H](CO)NC(=O)[C@@H](NC(=O)[C@H](C)NC(=O)[C@H](CC(N)=O)NC(=O)[C@H](CO)NC(=O)CN)[C@@H](C)O)[C@@H](C)O)[C@@H](C)O)C(=O)N[C@@H](CCCCN)C(=O)N[C@@H](C)C(=O)O` (H-GSNATSTTVKA-OH): the Activity is 31% in experiment [1] and 133% in experiment [2].
Take `CC(C)[C@H](NC(=O)[C@@H](NC(=O)[C@@H](NC(=O)[C@H](CO)NC(=O)[C@H](C)NC(=O)[C@H](Cc1ccccc1)NC(=O)[C@H](CC(N)=O)NC(=O)[C@H](CO)NC(=O)CN)[C@@H](C)O)[C@@H](C)O)C(=O)N[C@@H](CCCCN)C(=O)N[C@@H](C)C(=O)O` (H-GSNFASTTVKA-OH): the results for the Activity in experiment [1] and in experiment [2] were 120% and 228%, respectively.
On the same counts, the results for `CC(C)[C@H](NC(=O)[C@@H](NC(=O)[C@@H](NC(=O)[C@H](C)NC(=O)[C@@H](NC(=O)[C@H](Cc1ccccc1)NC(=O)[C@H](CC(N)=O)NC(=O)[C@H](CO)NC(=O)CN)[C@@H](C)O)[C@@H](C)O)[C@@H](C)O)C(=O)N[C@@H](CCCCN)C(=O)N[C@@H](C)C(=O)O` (H-GSNFTATTVKA-OH) are 182% and 135%.
In the case of `C[C@@H](O)[C@H](NC(=O)[C@H](Cc1ccccc1)NC(=O)[C@H](CC(N)=O)NC(=O)[C@H](CO)NC(=O)CN)C(=O)N[C@@H](CO)C(=O)O` (H-GSNFTS-OH), the Activity in experiment [1] and in experiment [2] was 0% each time.
`CC(C)[C@H](NC(=O)[C@@H](NC(=O)[C@H](C)NC(=O)[C@H](CO)NC(=O)[C@@H](NC(=O)[C@H](Cc1ccccc1)NC(=O)[C@H](CC(N)=O)NC(=O)[C@H](CO)NC(=O)CN)[C@@H](C)O)[C@@H](C)O)C(=O)N[C@@H](CCCCN)C(=O)N[C@@H](C)C(=O)O` (H-GSNFTSATVKA-OH): the Activity was 107% in experiment [1] and 231% in experiment [2].
Turning to `C[C@@H](O)[C@H](NC(=O)[C@H](CO)NC(=O)[C@@H](NC(=O)[C@H](Cc1ccccc1)NC(=O)[C@H](CC(N)=O)NC(=O)[C@H](CO)NC(=O)CN)[C@@H](C)O)C(=O)O` (H-GSNFTST-OH), the Activity amounted to 0% in experiment [1] and 34% in experiment [2].
On to `CC(C)[C@H](NC(=O)[C@H](C)NC(=O)[C@@H](NC(=O)[C@H](CO)NC(=O)[C@@H](NC(=O)[C@H](Cc1ccccc1)NC(=O)[C@H](CC(N)=O)NC(=O)[C@H](CO)NC(=O)CN)[C@@H](C)O)[C@@H](C)O)C(=O)N[C@@H](CCCCN)C(=O)N[C@@H](C)C(=O)O` (H-GSNFTSTAVKA-OH), for which the values for the Activity in experiment [1] and in experiment [2] were 124% and 182%, respectively.
For `C[C@@H](O)[C@H](NC(=O)[C@@H](NC(=O)[C@H](CO)NC(=O)[C@@H](NC(=O)[C@H](Cc1ccccc1)NC(=O)[C@H](CC(N)=O)NC(=O)[C@H](CO)NC(=O)CN)[C@@H](C)O)[C@@H](C)O)C(=O)O` (H-GSNFTSTT-OH) the same measures were 0% and 19%.
Regarding `C[C@H](NC(=O)[C@H](CCCCN)NC(=O)[C@H](C)NC(=O)[C@@H](NC(=O)[C@@H](NC(=O)[C@H](CO)NC(=O)[C@@H](NC(=O)[C@H](Cc1ccccc1)NC(=O)[C@H](CC(N)=O)NC(=O)[C@H](CO)NC(=O)CN)[C@@H](C)O)[C@@H](C)O)[C@@H](C)O)C(=O)O` (H-GSNFTSTTAKA-OH), the figures for the Activity in experiment [1] and in experiment [2] were 64% and 129%, respectively.
On to `CC(C)[C@H](NC(=O)[C@@H](NC(=O)[C@@H](NC(=O)[C@H](CO)NC(=O)[C@@H](NC(=O)[C@H](Cc1ccccc1)NC(=O)[C@H](CC(N)=O)NC(=O)[C@H](CO)NC(=O)CN)[C@@H](C)O)[C@@H](C)O)[C@@H](C)O)C(=O)O` (H-GSNFTSTTV-OH), for which the Activity in experiment [1] was 0%; in experiment [2] it was 27%.
For `CC(C)[C@H](NC(=O)[C@@H](NC(=O)[C@@H](NC(=O)[C@H](CO)NC(=O)[C@@H](NC(=O)[C@H](Cc1ccccc1)NC(=O)[C@H](CC(N)=O)NC(=O)[C@H](CO)NC(=O)CN)[C@@H](C)O)[C@@H](C)O)[C@@H](C)O)C(=O)N[C@@H](C)C(=O)N[C@@H](C)C(=O)O` (H-GSNFTSTTVAA-OH), the figures for the Activity in experiment [1] and in experiment [2] were 0% and 85%, respectively.
As for `CC(C)[C@H](NC(=O)[C@@H](NC(=O)[C@@H](NC(=O)[C@H](CO)NC(=O)[C@@H](NC(=O)[C@H](Cc1ccccc1)NC(=O)[C@H](CC(N)=O)NC(=O)[C@H](CO)NC(=O)CN)[C@@H](C)O)[C@@H](C)O)[C@@H](C)O)C(=O)N[C@@H](CCCCN)C(=O)O` (H-GSNFTSTTVK-OH), the Activity came out at 201% in experiment [1] and 242% in experiment [2].
For `CC(C)[C@H](NC(=O)[C@@H](NC(=O)[C@@H](NC(=O)[C@H](CO)NC(=O)[C@@H](NC(=O)[C@H](Cc1ccccc1)NC(=O)[C@H](CC(N)=O)NC(=O)[C@H](CO)NC(=O)CN)[C@@H](C)O)[C@@H](C)O)[C@@H](C)O)C(=O)N[C@@H](CCCCN)C(=O)N(C)[C@@H](C)C(=O)O` (H-GSNFTSTTVK[NMeA]-OH), the results for the Activity in experiment [1] and in experiment [2] were 141% and 136%, respectively.
For the molecule `CC(C)[C@H](NC(=O)[C@@H](NC(=O)[C@@H](NC(=O)[C@H](CO)NC(=O)[C@@H](NC(=O)[C@H](Cc1ccccc1)NC(=O)[C@H](CC(N)=O)NC(=O)[C@H](CO)NC(=O)CN)[C@@H](C)O)[C@@H](C)O)[C@@H](C)O)C(=O)N(C)[C@@H](CCCCN)C(=O)N[C@@H](C)C(=O)O` (H-GSNFTSTTV[NMeK]A-OH), the Activity in experiment [1] worked out at 191%; in experiment [2] it was 185%.
With `CC(C)[C@@H](C(=O)N[C@@H](CCCCN)C(=O)N[C@@H](C)C(=O)O)N(C)C(=O)[C@@H](NC(=O)[C@@H](NC(=O)[C@H](CO)NC(=O)[C@@H](NC(=O)[C@H](Cc1ccccc1)NC(=O)[C@H](CC(N)=O)NC(=O)[C@H](CO)NC(=O)CN)[C@@H](C)O)[C@@H](C)O)[C@@H](C)O` (H-GSNFTSTT[NMeV]KA-OH), the values for the Activity in experiment [1] and in experiment [2] were 215% and 273%, respectively.
`CC(C)[C@H](NC(=O)[C@H]([C@@H](C)O)N(C)C(=O)[C@@H](NC(=O)[C@H](CO)NC(=O)[C@@H](NC(=O)[C@H](Cc1ccccc1)NC(=O)[C@H](CC(N)=O)NC(=O)[C@H](CO)NC(=O)CN)[C@@H](C)O)[C@@H](C)O)C(=O)N[C@@H](CCCCN)C(=O)N[C@@H](C)C(=O)O` (H-GSNFTST[NMeT]VKA-OH): the Activity in experiment [1] was found to be 168%; in experiment [2], 265%.
Take `CC(C)[C@H](NC(=O)[C@@H](NC(=O)[C@H]([C@@H](C)O)N(C)C(=O)[C@H](CO)NC(=O)[C@@H](NC(=O)[C@H](Cc1ccccc1)NC(=O)[C@H](CC(N)=O)NC(=O)[C@H](CO)NC(=O)CN)[C@@H](C)O)[C@@H](C)O)C(=O)N[C@@H](CCCCN)C(=O)N[C@@H](C)C(=O)O` (H-GSNFTS[NMeT]TVKA-OH): the values for the Activity in experiment [1] and in experiment [2] were 197% and 249%, respectively.
For `CC(C)[C@H](NC(=O)[C@@H](NC(=O)[C@@H](NC(=O)[C@H](CO)N(C)C(=O)[C@@H](NC(=O)[C@H](Cc1ccccc1)NC(=O)[C@H](CC(N)=O)NC(=O)[C@H](CO)NC(=O)CN)[C@@H](C)O)[C@@H](C)O)[C@@H](C)O)C(=O)N[C@@H](CCCCN)C(=O)N[C@@H](C)C(=O)O` (H-GSNFT[NMeS]TTVKA-OH), the Activity in experiment [1] was found to be 279%; in experiment [2] it was 312%.
With `CC(C)[C@H](NC(=O)[C@@H](NC(=O)[C@@H](NC(=O)[C@H](CO)NC(=O)[C@H]([C@@H](C)O)N(C)C(=O)[C@H](Cc1ccccc1)NC(=O)[C@H](CC(N)=O)NC(=O)[C@H](CO)NC(=O)CN)[C@@H](C)O)[C@@H](C)O)C(=O)N[C@@H](CCCCN)C(=O)N[C@@H](C)C(=O)O` (H-GSNF[NMeT]STTVKA-OH), the Activity in experiment [1] is 200%; in experiment [2] it was 165%.
On the same counts, the results for `CC(C)[C@H](NC(=O)[C@@H](NC(=O)[C@@H](NC(=O)[C@H](CO)NC(=O)[C@@H](NC(=O)[C@H](Cc1ccccc1)N(C)C(=O)[C@H](CC(N)=O)NC(=O)[C@H](CO)NC(=O)CN)[C@@H](C)O)[C@@H](C)O)[C@@H](C)O)C(=O)N[C@@H](CCCCN)C(=O)N[C@@H](C)C(=O)O` (H-GSN[NMeF]TSTTVKA-OH) are 177% and 195%.
Take `CC(C)[C@H](NC(=O)[C@@H](NC(=O)[C@@H](NC(=O)[C@H](CO)NC(=O)[C@@H](NC(=O)[C@H](Cc1ccccc1)NC(=O)[C@H](CC(N)=O)NC(=O)[C@H](CO)N(C)C(=O)CN)[C@@H](C)O)[C@@H](C)O)[C@@H](C)O)C(=O)N[C@@H](CCCCN)C(=O)N[C@@H](C)C(=O)O` (H-G[NMeS]NFTSTTVKA-OH): the Activity in experiment [1] was determined as 293%; in experiment [2], 182%.
Turning to `CC(C)[C@H](NC(=O)[C@@H](NC(=O)[C@@H](NC(=O)[C@H](CO)NC(=O)[C@@H](NC(=O)[C@H](Cc1ccccc1)NC(=O)[C@@H](N)CC(N)=O)[C@@H](C)O)[C@@H](C)O)[C@@H](C)O)C(=O)N[C@@H](CCCCN)C(=O)N[C@@H](C)C(=O)O` (H-NFTSTTVKA-OH), the values for the Activity in experiment [1] and in experiment [2] were 152% and 119%, respectively.
With `CC(C)[C@H](NC(=O)[C@@H](NC(=O)[C@@H](NC(=O)[C@H](CO)NC(=O)[C@@H](NC(=O)[C@H](Cc1ccccc1)NC(=O)[C@H](CC(N)=O)NC(=O)[C@@H](N)CO)[C@@H](C)O)[C@@H](C)O)[C@@H](C)O)C(=O)N[C@@H](CCCCN)C(=O)N[C@@H](C)C(=O)O` (H-SNFTSTTVKA-OH), the Activity in experiment [1] is 177%; in experiment [2], 207%.
As for `CC(C)[C@H](NC(=O)[C@@H](NC(=O)[C@@H](NC(=O)[C@@H](N)CO)[C@@H](C)O)[C@@H](C)O)C(=O)N[C@@H](CCCCN)C(=O)N[C@@H](C)C(=O)O` (H-STTVKA-OH), the Activity amounted to 187% in experiment [1] and 144% in experiment [2].
In the case of `CC(C)[C@H](NC(=O)[C@@H](NC(=O)[C@@H](NC(=O)[C@H](CO)NC(=O)[C@@H](N)[C@@H](C)O)[C@@H](C)O)[C@@H](C)O)C(=O)N[C@@H](CCCCN)C(=O)N[C@@H](C)C(=O)O` (H-TSTTVKA-OH), the Activity in experiment [1] worked out at 111%; in experiment [2], 135%.
For `CNCC(=O)N[C@@H](CO)C(=O)N[C@@H](CC(N)=O)C(=O)N[C@@H](Cc1ccccc1)C(=O)N[C@H](C(=O)N[C@@H](CO)C(=O)N[C@H](C(=O)N[C@H](C(=O)N[C@H](C(=O)N[C@@H](CCCCN)C(=O)N[C@@H](C)C(=O)O)C(C)C)[C@@H](C)O)[C@@H](C)O)[C@@H](C)O` (H-[Sar]SNFTSTTVKA-OH) the same measures were 294% and 181%.

These data come from ChEMBL document CHEMBL3217454, “Structureactivity relationship studies using peptide arrays: the example of HIV-1 Revintegrase interaction” (Medchemcomm, 2013).
